What was measured:
[1] = tested on: PRK; conditions: Kuwahara et al., 1999; Kondoh et al., 1997; not specific for PRK, also block ROCK; cited from earlier work
[2] = Isoproterenol infusion model of pathological cardiac hypertrophy, heart weight to body weight ratio; type: in vivo, Sprague-Dawley rats; conditions: isoproterenol 4.8 mg/kg/d, subcutaneous osmotic minipump, 4 days; data not shown
Protocol: (§1) For isoproterenol infusion, nine to ten-week-old male Sprague-Dawley rats were anesthetized via passive inhalation of 2.0% isoflurane. When a level of surgical anesthesia was reached, an osmotic minipump (Alzet model 2001, Alza Corp., Palo Alto Calif.) containing either vehicle (0.1% ascorbic acid in 0.9% NaCl), or isoproterenol (4.8 mg/kg/d) was subcutaneously implanted into the back between the scapulae followed by closure with 3-0 silk sutures. After 4 days of recovery, animals were sacrificed and left ventricular tissue processed for Western blot analysis as described below. Average heart weight to body weight ratios in isoproterenol versus vehicle-infused rats increased 48% (data not shown).

[3] = tested on: PRK; experiment: Western blot analysis of PRK phosphorylation status in left ventricular tissue after isoproterenol infusion; type: in vivo; conditions: rat, 4 days of isoproterenol infusion compared to control saline infusion; anti-phospho-PRK Western blot; *P<0.05
Protocol: as §1
Immunoblotting analyses. […] Protein concentration was determined by BCA assay (Pierce), and 20 μg of total protein was resolved by SDS-polyacrylamide gel electrophoresis (PAGE) with gradient gels (4 to 20% polyacrylamide; Invitrogen). […] Film images were then scanned and quantified using a digital image analysis system (Alpha Innotech).
PRK phosphorylation is increased with pathological cardiac hypertrophy in vivo. […] PRK phosphorylation is readily detected by Western analysis employing anti-phospho-PRK antibodies.

Structure (SMILES)	PRK inhibition (known inhibitor) [1]	Average heart weight to body weight ratios, increase versus vehicle-infused rats [2] [%]	PRK phosphorylation [3]
O=S(=O)(c1cccc2cnccc12)N1CCCNCC1 [Fasudil]	characterized as PRK inhibitors		
C[C@@H](N)[C@H]1CC[C@H](C(=O)Nc2ccncc2)CC1 [Y27632]	characterized as PRK inhibitors		
CC(C)NCC(O)c1ccc(O)c(O)c1 (stereo not shown) [isoproterenol]		48	increased
